According to article PMC10235067, “Increased renal elimination of endogenous and synthetic pyrimidine nucleosides in concentrative nucleoside transporter 1 deficient mice” (Nature Communications, 2023):
Values joined by “and” are separate entries in the source; they are usually repeats but may differ in a detail not shown here. Identical values can stand only once.

Experiments:
[1] = cited from earlier work
[2] = Gemcitabine plasma pharmacokinetics in Slc28a1+/+ and Slc28a1-/- mice
[3] = dFdU in plasma, KO mice, iv gemcitabine 50mg/kg, per mouse
[4] = dFdU in plasma, WT mice, iv gemcitabine 50mg/kg, per mouse

AUC (Last) ([2]; Slc28a1-/- mice, plasma, single i.v. dFdC 50 mg/kg): 1453.8 ± 31.9 ng x min/mL
AUCINF_obs [2, 3]: 12372.5 ng·min/mL and 7563.4 ng·min/mL
AUCINF_pred [2, 3]: 12429.8 ng·min/mL and 7594.45 ng·min/mL
AUC_%Back_Ext_obs [2, 3]: 27.8053% and 16.048% and 18.9747%
AUC_%Back_Ext_pred [2, 3]: 27.8277% and 15.9741% and 18.8972%
AUC_%Extrap_obs [2, 3]: 3.511% and 11.2661% and 5.257%
AUC_%Extrap_pred [2, 3]: 3.433% and 11.6749% and 5.644%
AUMC_%Extrap_obs [2, 3]: 13.2491% and 31.3337% and 16.4642%
AUMC_%Extrap_pred [2, 3]: 12.9851% and 32.2062% and 17.5245%
HL_Lambda_z [2, 3]: 5.606 min and 8.621 min and 6.452 min
Lambda_z [2, 3]: 0.0804 min⁻¹ and 0.1074 min⁻¹
MRTINF_obs [2, 3]: 15.2585 min and 12.5511 min
MRTINF_pred [2, 3]: 15.3837 min and 12.6605 min
Tlast [2, 3]: 30 min and 15 min
Tmax [2, 3]: 5 min and 10 min and 15 min
Structure (SMILES): O=c1ccn([C@@H]2O[C@H](CO)[C@@H](O)C2(F)F)c(=O)[nH]1 [dFdU, 2′,2′-difluorodeoxyuridine]
half-life [1]: ~ 26 h
AUCINF_D_obs [2, 3]: 145.293 kg·ng·min/mL/mg and 247.451 kg·ng·min/mL/mg and 151.268 kg·ng·min/mL/mg
AUCINF_D_pred [2, 3]: 145.176 kg·ng·min/mL/mg and 248.596 kg·ng·min/mL/mg and 151.889 kg·ng·min/mL/mg
AUCall [2, 3]: 7482.64 ng·min/mL and 12659.7 ng·min/mL and 8852.13 ng·min/mL and 5047.42 ng·min/mL and 7806.56 ng·min/mL and 6947.11 ng·min/mL
AUClast [2, 3]: 7009.6 ng·min/mL and 10978.6 ng·min/mL and 5995.89 ng·min/mL and 3337.67 ng·min/mL and 7165.79 ng·min/mL and 6415.86 ng·min/mL
AUClast_D [2, 3]: 140.192 kg·ng·min/mL/mg and 219.572 kg·ng·min/mL/mg and 119.918 kg·ng·min/mL/mg and 66.7534 kg·ng·min/mL/mg and 143.316 kg·ng·min/mL/mg and 128.317 kg·ng·min/mL/mg
AUMCINF_obs [2, 3]: 73315.1 min*min*ng/mL and 188787 min*min*ng/mL and 94928.9 min*min*ng/mL
AUMCINF_pred [2, 3]: 73092.7 min*min*ng/mL and 191216 min*min*ng/mL and 96149.2 min*min*ng/mL
AUMClast [2, 3]: 63601.5 min*min*ng/mL and 129633 min*min*ng/mL and 47032.5 min*min*ng/mL and 25446 min*min*ng/mL and 79299.6 min*min*ng/mL and 72737 min*min*ng/mL
Cl_pred [2, 3]: 413.291 L/h/kg and 241.36 L/h/kg and 395.026 L/h/kg
Clast [2, 3]: 31.5362 ng/mL and 112.074 ng/mL and 380.831 ng/mL and 227.966 ng/mL and 42.718 ng/mL and 35.4167 ng/mL
Clast_pred [2, 3]: 30.8142 ng/mL and 116.678 ng/mL and 46.0533 ng/mL
Cmax [2, 3]: 399.844 ng/mL and 516.311 ng/mL and 478.159 ng/mL and 230.143 ng/mL and 315.127 ng/mL and 303.44 ng/mL
Cmax_D [2, 3]: 7.997 kg·ng/mL/mg and 10.3262 kg·ng/mL/mg and 9.563 kg·ng/mL/mg and 4.603 kg·ng/mL/mg and 6.303 kg·ng/mL/mg and 6.069 kg·ng/mL/mg
MRTlast [2, 3]: 11.8078 min and 7.844 min and 7.624 min and 11.0664 min and 11.3371 min
Vss_obs [2, 3]: 69.4601 L/kg and 61.663 L/kg and 82.9724 L/kg
Vss_pred [2, 3]: 69.3609 L/kg and 61.8825 L/kg and 83.3534 L/kg
Vz_obs [2, 3]: 55.6606 L/kg and 50.262 L/kg and 61.5323 L/kg
Vz_pred [2, 3]: 55.7054 L/kg and 50.0305 L/kg and 61.2807 L/kg
AUCINF_D_obs [2, 4]: 809.741 kg·ng·min/mL/mg and 249.152 kg·ng·min/mL/mg and 172.396 kg·ng·min/mL/mg and 377.161 kg·ng·min/mL/mg
AUCINF_D_pred [2, 4]: 816.693 kg·ng·min/mL/mg and 238.149 kg·ng·min/mL/mg and 171.456 kg·ng·min/mL/mg and 377.935 kg·ng·min/mL/mg
AUCINF_obs [2, 4]: 40487.1 ng·min/mL and 12457.6 ng·min/mL and 8619.8 ng·min/mL and 18858.1 ng·min/mL
AUCINF_pred [2, 4]: 40834.7 ng·min/mL and 11907.4 ng·min/mL and 8572.82 ng·min/mL and 18896.7 ng·min/mL
AUC_%Back_Ext_obs [2, 4]: 5.421% and 15.2704% and 19.786% and 11.9089%
AUC_%Back_Ext_pred [2, 4]: 5.375% and 15.976% and 19.8944% and 11.8845%
AUC_%Extrap_obs [2, 4]: 84.3044% and 33.9106% and 11.4334% and 37.4722%
AUC_%Extrap_pred [2, 4]: 84.438% and 30.857% and 10.948% and 37.6002%
AUCall [2, 4]: 4075.38 ng·min/mL and 9255.63 ng·min/mL and 10796.8 ng·min/mL and 8847.25 ng·min/mL and 15444.5 ng·min/mL and 12682.2 ng·min/mL
AUClast [2, 4]: 2654.78 ng·min/mL and 6354.7 ng·min/mL and 8233.16 ng·min/mL and 7634.27 ng·min/mL and 11791.5 ng·min/mL and 11904.6 ng·min/mL
AUClast_D [2, 4]: 53.0957 kg·ng·min/mL/mg and 127.094 kg·ng·min/mL/mg and 164.663 kg·ng·min/mL/mg and 152.685 kg·ng·min/mL/mg and 235.831 kg·ng·min/mL/mg and 238.093 kg·ng·min/mL/mg
AUMCINF_obs [2, 4]: 3570423 min*min*ng/mL and 327900 min*min*ng/mL and 123838 min*min*ng/mL and 570014 min*min*ng/mL
AUMCINF_pred [2, 4]: 3606313 min*min*ng/mL and 297795 min*min*ng/mL and 121856 min*min*ng/mL and 572297 min*min*ng/mL
AUMC_%Extrap_obs [2, 4]: 98.6995% and 70.4945% and 33.5736% and 73.1636%
AUMC_%Extrap_pred [2, 4]: 98.7124% and 67.5118% and 32.4931% and 73.2706%
AUMClast [2, 4]: 21508.2 min*min*ng/mL and 46433.5 min*min*ng/mL and 96748.4 min*min*ng/mL and 82261.4 min*min*ng/mL and 152972 min*min*ng/mL and 128827 min*min*ng/mL
Cl_pred [2, 4]: 73.467 L/h/kg and 251.944 L/h/kg and 349.943 L/h/kg and 158.758 L/h/kg
Clast [2, 4]: 189.413 ng/mL and 386.792 ng/mL and 170.91 ng/mL and 80.8657 ng/mL and 243.534 ng/mL and 51.8385 ng/mL
Clast_pred [2, 4]: 390.731 ng/mL and 148.651 ng/mL and 77.0106 ng/mL and 244.867 ng/mL
Cmax [2, 4]: 214.033 ng/mL and 433.203 ng/mL and 507.425 ng/mL and 460.142 ng/mL and 479.909 ng/mL and 627.306 ng/mL
Cmax_D [2, 4]: 4.281 kg·ng/mL/mg and 8.664 kg·ng/mL/mg and 10.1485 kg·ng/mL/mg and 9.203 kg·ng/mL/mg and 9.598 kg·ng/mL/mg and 12.5461 kg·ng/mL/mg
HL_Lambda_z [2, 4]: 61.1667 min and 17.1328 min and 8.4476 min and 20.1128 min
Lambda_z [2, 4]: 0.01133 min⁻¹ and 0.04046 min⁻¹ and 0.08205 min⁻¹ and 0.03446 min⁻¹
